Test results reported in the kinase profiling compilation of Christmann-Franck et al. (2016).

Legend:
Experiment in all cases: KINOMEscan competition binding
Settings in all cases: compound 10.0 µM
[1] = target: MARK2 (human) (UniProt Q7KZI7)
[2] = target: ERBB3 (human) (UniProt P21860)
[3] = target: FYN (human) (UniProt P06241)
[4] = target: MAP4K2 (human) (UniProt Q12851)
[5] = target: PDGFRB (human) (UniProt P09619)
[6] = target: SRPK3 (human) (UniProt Q9UPE1)
[7] = target: SNRK (human) (UniProt Q9NRH2)
[8] = target: RIOK2 (human) (UniProt Q9BVS4)
Chain of RIOK2 (human) (Q9BVS4 whole entry, looked up): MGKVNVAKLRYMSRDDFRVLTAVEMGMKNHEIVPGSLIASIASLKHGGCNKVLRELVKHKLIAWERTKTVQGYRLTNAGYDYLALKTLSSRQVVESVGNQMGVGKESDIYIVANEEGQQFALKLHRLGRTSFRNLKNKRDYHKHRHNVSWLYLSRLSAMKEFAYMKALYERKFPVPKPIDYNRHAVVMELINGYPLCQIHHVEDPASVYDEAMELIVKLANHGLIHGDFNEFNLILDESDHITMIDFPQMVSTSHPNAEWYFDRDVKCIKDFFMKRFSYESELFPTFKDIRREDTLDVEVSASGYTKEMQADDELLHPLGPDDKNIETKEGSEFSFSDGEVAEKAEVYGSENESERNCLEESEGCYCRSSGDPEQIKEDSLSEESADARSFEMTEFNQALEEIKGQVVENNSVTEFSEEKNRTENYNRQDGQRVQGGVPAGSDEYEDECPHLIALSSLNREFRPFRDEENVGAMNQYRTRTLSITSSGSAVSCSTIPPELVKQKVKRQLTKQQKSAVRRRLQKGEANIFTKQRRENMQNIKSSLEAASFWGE

[9] = target: ABL2 (human) (UniProt P42684)
[10] = target: YSK4 (human) (UniProt Q56UN5)
[11] = target: AURKB (human) (UniProt Q96GD4)
[12] = target: CLK2 (human) (UniProt P49760)
[13] = target: MAP4K1 (human) (UniProt Q92918)
[14] = target: AAK1 (human) (UniProt Q2M2I8)
[15] = target: EPHA7 (human) (UniProt Q15375)
[16] = target: CASK (human) (UniProt O14936)
[17] = target: NTRK3 (human) (UniProt Q16288)
[18] = target: TSSK1B (human) (UniProt Q9BXA7)
[19] = target: PTK2 (human) (UniProt Q05397)
[20] = target: SIK3 (human) (UniProt Q9Y2K2)
[21] = target: DSTYK (human) (UniProt Q6XUX3)
[22] = target: DYRK1B (human) (UniProt Q9Y463)
Chain of DYRK1B (human) (Q9Y463 whole entry, looked up): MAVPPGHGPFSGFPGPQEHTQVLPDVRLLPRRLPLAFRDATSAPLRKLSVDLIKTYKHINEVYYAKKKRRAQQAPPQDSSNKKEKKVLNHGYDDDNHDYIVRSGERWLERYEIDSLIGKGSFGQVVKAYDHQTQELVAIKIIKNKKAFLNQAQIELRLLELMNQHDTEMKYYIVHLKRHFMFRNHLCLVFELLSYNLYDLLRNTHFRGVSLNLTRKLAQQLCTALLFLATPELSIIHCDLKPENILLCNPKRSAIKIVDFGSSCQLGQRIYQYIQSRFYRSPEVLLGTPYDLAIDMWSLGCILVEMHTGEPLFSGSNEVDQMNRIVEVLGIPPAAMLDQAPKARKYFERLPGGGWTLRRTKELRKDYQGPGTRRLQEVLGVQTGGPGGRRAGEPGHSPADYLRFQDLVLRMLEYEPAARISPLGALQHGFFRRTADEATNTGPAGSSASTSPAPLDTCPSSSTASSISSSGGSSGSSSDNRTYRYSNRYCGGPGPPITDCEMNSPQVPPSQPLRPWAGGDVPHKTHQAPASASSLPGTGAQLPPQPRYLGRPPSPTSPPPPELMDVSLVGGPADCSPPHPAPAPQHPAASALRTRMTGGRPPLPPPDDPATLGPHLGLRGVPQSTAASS

[23] = target: MAP2K2 (human) (UniProt P36507)
[24] = target: BLK (human) (UniProt P51451)
[25] = target: DMPK (human) (UniProt Q09013)
[26] = target: TEK (human) (UniProt Q02763)
[27] = target: MYO3B (human) (UniProt Q8WXR4)
Chain of MYO3B (human) (Q8WXR4 whole entry, looked up): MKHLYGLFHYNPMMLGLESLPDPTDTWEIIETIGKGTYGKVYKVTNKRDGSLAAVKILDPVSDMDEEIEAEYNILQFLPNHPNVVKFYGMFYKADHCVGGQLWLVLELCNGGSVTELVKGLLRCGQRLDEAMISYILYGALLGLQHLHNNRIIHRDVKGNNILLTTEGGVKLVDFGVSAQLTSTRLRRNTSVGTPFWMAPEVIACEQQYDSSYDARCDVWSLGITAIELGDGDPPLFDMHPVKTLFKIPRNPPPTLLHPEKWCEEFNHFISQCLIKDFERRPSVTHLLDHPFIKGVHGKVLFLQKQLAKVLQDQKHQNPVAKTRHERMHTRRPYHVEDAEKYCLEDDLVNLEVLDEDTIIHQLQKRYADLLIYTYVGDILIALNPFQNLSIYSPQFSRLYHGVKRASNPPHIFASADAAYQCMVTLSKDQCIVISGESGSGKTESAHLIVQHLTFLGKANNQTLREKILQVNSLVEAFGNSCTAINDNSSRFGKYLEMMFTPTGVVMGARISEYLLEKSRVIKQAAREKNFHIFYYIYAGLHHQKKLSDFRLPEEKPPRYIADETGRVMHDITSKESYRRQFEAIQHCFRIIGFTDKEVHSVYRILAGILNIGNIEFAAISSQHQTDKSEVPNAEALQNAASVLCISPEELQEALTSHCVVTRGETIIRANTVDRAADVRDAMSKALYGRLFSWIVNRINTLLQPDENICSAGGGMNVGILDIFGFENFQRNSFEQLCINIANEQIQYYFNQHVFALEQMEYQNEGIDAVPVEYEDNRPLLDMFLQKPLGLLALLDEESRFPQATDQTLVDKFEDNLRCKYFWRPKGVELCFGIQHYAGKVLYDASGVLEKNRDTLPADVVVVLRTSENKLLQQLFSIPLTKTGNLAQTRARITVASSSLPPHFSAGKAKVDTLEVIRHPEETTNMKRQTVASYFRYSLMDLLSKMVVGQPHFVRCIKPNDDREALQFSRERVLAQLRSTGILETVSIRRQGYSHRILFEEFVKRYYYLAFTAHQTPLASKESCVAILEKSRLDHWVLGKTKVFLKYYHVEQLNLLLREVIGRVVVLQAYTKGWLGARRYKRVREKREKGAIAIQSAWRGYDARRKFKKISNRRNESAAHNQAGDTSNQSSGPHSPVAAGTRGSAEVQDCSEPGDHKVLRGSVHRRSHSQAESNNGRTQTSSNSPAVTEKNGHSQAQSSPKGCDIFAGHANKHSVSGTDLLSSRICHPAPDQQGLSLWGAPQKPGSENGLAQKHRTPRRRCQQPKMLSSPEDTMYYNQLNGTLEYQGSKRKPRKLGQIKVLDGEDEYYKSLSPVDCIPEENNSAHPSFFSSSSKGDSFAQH

[28] = target: SRPK2 (human) (UniProt P78362)
Chain of SRPK2 (human) (P78362 whole entry, looked up): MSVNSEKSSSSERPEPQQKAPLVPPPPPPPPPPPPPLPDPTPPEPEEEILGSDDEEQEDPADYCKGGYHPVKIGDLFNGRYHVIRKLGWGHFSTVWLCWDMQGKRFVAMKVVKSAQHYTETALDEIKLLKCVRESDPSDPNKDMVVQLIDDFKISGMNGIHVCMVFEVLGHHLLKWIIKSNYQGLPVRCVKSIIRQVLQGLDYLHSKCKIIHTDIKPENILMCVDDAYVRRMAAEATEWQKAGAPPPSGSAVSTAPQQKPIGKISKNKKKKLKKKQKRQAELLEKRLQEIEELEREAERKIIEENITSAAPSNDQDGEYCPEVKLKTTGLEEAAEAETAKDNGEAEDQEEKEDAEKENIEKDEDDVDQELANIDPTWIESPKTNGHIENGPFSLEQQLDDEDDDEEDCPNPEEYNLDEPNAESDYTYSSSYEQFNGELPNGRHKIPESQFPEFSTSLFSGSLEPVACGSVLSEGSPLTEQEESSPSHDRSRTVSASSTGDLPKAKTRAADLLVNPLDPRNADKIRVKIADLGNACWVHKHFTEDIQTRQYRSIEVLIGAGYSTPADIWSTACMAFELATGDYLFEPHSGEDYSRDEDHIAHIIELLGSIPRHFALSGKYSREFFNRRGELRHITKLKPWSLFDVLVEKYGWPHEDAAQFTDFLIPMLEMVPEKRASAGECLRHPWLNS

[29] = target: AKT1 (human) (UniProt P31749)
[30] = target: CAMK1G (human) (UniProt Q96NX5)
[31] = target: PTK6 (human) (UniProt Q13882)
[32] = target: EPHA4 (human) (UniProt P54764)
[33] = target: EPHB3 (human) (UniProt P54753)
[34] = target: PIP4K2C (human) (UniProt Q8TBX8)
[35] = target: TYK2 JH2 pseudokinase (human) (UniProt P29597)
[36] = target: ACVR2A (human) (UniProt P27037)
[37] = target: CSNK1E (human) (UniProt P49674)
[38] = target: CDK13 (human) (UniProt Q14004)
[39] = target: NEK3 (human) (UniProt P51956)
[40] = target: NTRK1 (human) (UniProt P04629)

Chain of PDGFRB (human) (P09619 whole entry, looked up): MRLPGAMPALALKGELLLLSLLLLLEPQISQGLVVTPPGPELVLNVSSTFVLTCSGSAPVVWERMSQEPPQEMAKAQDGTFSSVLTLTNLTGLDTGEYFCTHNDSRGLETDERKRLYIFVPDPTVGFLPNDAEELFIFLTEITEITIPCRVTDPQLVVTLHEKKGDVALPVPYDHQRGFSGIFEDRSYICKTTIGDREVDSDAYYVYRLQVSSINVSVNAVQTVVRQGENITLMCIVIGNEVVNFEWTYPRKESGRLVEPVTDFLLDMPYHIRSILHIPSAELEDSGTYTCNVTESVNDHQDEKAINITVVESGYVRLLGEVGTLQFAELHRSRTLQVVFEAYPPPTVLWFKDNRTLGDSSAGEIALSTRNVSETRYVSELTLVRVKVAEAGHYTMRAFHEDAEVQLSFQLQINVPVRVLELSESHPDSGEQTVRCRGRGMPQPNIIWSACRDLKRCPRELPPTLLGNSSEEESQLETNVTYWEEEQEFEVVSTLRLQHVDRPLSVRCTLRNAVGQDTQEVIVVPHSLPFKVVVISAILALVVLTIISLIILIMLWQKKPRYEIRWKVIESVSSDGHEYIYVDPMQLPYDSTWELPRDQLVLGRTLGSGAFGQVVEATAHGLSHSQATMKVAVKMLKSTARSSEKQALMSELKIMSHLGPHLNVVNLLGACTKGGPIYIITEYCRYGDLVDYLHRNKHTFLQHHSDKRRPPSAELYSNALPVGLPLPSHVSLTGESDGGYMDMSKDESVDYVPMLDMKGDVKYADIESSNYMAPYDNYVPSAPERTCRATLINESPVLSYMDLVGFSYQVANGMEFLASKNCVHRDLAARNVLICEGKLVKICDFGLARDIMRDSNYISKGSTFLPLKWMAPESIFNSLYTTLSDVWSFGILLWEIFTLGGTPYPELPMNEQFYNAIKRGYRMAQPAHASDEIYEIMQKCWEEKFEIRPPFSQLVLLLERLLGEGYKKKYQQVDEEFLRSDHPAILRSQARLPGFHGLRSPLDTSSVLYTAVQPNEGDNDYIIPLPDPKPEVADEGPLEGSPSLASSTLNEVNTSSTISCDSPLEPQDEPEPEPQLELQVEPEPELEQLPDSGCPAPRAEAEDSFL
Chain of FYN (human) (P06241 whole entry, looked up): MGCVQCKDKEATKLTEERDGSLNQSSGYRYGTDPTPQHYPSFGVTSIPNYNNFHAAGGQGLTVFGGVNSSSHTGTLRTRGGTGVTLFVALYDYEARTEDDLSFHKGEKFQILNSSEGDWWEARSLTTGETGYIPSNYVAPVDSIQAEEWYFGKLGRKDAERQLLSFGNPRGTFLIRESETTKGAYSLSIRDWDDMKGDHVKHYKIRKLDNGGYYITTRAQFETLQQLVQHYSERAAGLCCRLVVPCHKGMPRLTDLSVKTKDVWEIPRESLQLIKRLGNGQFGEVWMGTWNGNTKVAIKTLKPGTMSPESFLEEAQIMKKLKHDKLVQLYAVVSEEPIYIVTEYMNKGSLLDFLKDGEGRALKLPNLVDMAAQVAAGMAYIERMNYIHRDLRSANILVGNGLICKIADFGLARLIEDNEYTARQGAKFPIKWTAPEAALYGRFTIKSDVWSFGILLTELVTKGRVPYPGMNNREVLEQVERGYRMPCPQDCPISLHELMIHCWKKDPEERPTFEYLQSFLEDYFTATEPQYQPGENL

Row | SMILES | kinase still bound, per cent of control [1] [%] | kinase still bound, per cent of control [2] [%] | kinase still bound, per cent of control [3] [%] | kinase still bound, per cent of control [5] [%] | kinase still bound, per cent of control [6] [%] | kinase still bound, per cent of control [7] [%] | kinase still bound, per cent of control [8] [%] | kinase still bound, per cent of control [10] [%] | kinase still bound, per cent of control [12] [%] | kinase still bound, per cent of control [13] [%] | kinase still bound, per cent of control [14] [%] | kinase still bound, per cent of control [15] [%] | kinase still bound, per cent of control [19] [%] | kinase still bound, per cent of control [21] [%] | kinase still bound, per cent of control [22] [%] | kinase still bound, per cent of control [23] [%] | kinase still bound, per cent of control [25] [%] | kinase still bound, per cent of control [26] [%] | kinase still bound, per cent of control [27] [%] | kinase still bound, per cent of control [28] [%] | other results
1 | N#CCNC(=O)c1ccc(-c2ccnc(Nc3ccc(N4CCOCC4)cc3)n2)cc1 | 43 | 100 | 78 | 2.2 | 18 | 89 | 68 | 1.7 | 7.4 | 11 | 3.9 | 96 | 85 | 38 | 90 | 100 | 37 | 100 | 100 | 30 | kinase still bound, per cent of control [4]: 40%; kinase still bound, per cent of control [9]: 57%; kinase still bound, per cent of control [11]: 69%; kinase still bound, per cent of control [16]: 100%; kinase still bound, per cent of control [17]: 63%; kinase still bound, per cent of control [18]: 100%; kinase still bound, per cent of control [20]: 100%; kinase still bound, per cent of control [24]: 100%; kinase still bound, per cent of control [29]: 100%; kinase still bound, per cent of control [30]: 30%; kinase still bound, per cent of control [31]: 100%; kinase still bound, per cent of control [32]: 100%; kinase still bound, per cent of control [33]: 100%; kinase still bound, per cent of control [34]: 54%; kinase still bound, per cent of control [35]: 100%; kinase still bound, per cent of control [36]: 75%; kinase still bound, per cent of control [37]: 100%; kinase still bound, per cent of control [38]: 91%
2 | C[C@@H](Oc1cc(-c2cnn(C3CCNCC3)c2)cnc1N)c1c(Cl)ccc(F)c1Cl | 20 | 81 | 10 | 44 | 15 | 100 | 56 | 2.4 | 68 | 4.6 | 21 | 0.3 | 0 | 1.6 | 84 | 54 | 1.6 | 1 | 100 | 46 | kinase still bound, per cent of control [9]: 0.85%; kinase still bound, per cent of control [18]: 40%; kinase still bound, per cent of control [39]: 100%; kinase still bound, per cent of control [29]: 100%; kinase still bound, per cent of control [30]: 76%; kinase still bound, per cent of control [31]: 56%; kinase still bound, per cent of control [32]: 6%; kinase still bound, per cent of control [40]: 0.1%; kinase still bound, per cent of control [33]: 100%; kinase still bound, per cent of control [34]: 100%; kinase still bound, per cent of control [35]: 2.3%; kinase still bound, per cent of control [36]: 30%; kinase still bound, per cent of control [37]: 100%; kinase still bound, per cent of control [38]: 24%
3 | COc1cc2ncn(-c3cc(OCc4ccccc4C(F)(F)F)c(C(N)=O)s3)c2cc1OC | 50 | 100 | 48 | 5.3 | 16 | 83 | 66 | 34 | 47 | 44 | 28 | 79 | 83 | 88 | 87 | 85 | 98 | 57 | 100 | 34 | kinase still bound, per cent of control [4]: 53%; kinase still bound, per cent of control [11]: 34%; kinase still bound, per cent of control [16]: 93%; kinase still bound, per cent of control [17]: 93%; kinase still bound, per cent of control [20]: 76%; kinase still bound, per cent of control [39]: 100%; kinase still bound, per cent of control [29]: 100%; kinase still bound, per cent of control [30]: 72%; kinase still bound, per cent of control [31]: 84%; kinase still bound, per cent of control [32]: 83%; kinase still bound, per cent of control [40]: 78%; kinase still bound, per cent of control [33]: 76%; kinase still bound, per cent of control [34]: 26%; kinase still bound, per cent of control [35]: 97%; kinase still bound, per cent of control [36]: 79%; kinase still bound, per cent of control [37]: 77%; kinase still bound, per cent of control [38]: 76%
